Calls of active or inactive are those of the source.
Tests used:
[1] = test system: Streptococcus sp. 'group A'; assay: growth inhibition of control SK(-) GAS strain, dose response, counter-screen for streptokinase expression inhibitor project, luminescence, kanamycin, BacTiterGlo, confirmation (AID 1900); assay type: functional, organism-based
[2] = NIH-3T3 fibroblast cytotoxicity, dose response, cytotoxicity control, cell-based, fluorescence, Alamar Blue, secondary assay (AID 2327); assay type: functional;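 note: NIH-3T3 mouse fibroblasts cultured with fluconazole at 8 µg/mL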
[3] = biological target: ATP-dependent molecular chaperone HSP82 (Candida albicans (strain WO-1) (Yeast), UniProt C4YTQ8); assay: loss of DOC-induced GRE-beta-galactosidase reporter signal, dose response, Hsp90 inhibitor project, S. cerevisiae, luminescence (AID 2400); assay type: functional, cell-based;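 note: beta-galactosidase luminescence from glucocorticoid response element reporter as proxy for Hsp90 function; inhibitor potency where signal loss means Hsp90 inhibition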
Sequence of ATP-dependent molecular chaperone HSP82 (C4YTQ8 whole entry): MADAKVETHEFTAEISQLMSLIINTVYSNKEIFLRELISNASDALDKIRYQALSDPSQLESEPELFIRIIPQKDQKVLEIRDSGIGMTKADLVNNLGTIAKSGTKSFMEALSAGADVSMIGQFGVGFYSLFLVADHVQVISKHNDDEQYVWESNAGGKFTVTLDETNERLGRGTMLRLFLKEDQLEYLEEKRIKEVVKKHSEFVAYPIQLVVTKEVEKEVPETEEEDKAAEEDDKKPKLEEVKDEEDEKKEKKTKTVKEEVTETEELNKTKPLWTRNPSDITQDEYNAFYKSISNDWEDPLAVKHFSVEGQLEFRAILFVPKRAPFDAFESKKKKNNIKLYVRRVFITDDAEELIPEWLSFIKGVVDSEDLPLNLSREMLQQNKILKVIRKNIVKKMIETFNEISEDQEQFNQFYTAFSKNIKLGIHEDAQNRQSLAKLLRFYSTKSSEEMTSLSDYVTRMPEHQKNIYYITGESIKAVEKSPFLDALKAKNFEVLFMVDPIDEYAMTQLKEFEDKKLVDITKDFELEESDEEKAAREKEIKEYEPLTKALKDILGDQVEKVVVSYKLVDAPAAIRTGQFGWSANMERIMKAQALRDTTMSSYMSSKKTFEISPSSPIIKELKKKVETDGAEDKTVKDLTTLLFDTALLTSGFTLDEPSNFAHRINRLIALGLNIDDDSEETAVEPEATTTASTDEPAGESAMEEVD

[4] = C. albicans growth with fluconazole, confirmation, fluorescence, retest (AID 2467); assay type: functional, cell-based
[5] = test system: HT-1080; assay: cytotoxicity in HT1080 fibrosarcoma cells, cell-based, fluorescence readout (AID 620); assay type: functional; conditions: Homo sapiens
[6] = test system: BJ; assay: cells; assay type: functional, cell-based; conditions: Homo sapiens
[7] = cells; assay type: functional, cell-based
[8] = biological target: T1, Serine/threonine-protein phosphatase (Candida dubliniensis (strain CD36 / CBS 7987 / NCPF 3949 / NRRLY-17841) (Yeast), UniProt B9W6M3); assay: calcineurin pathway inhibitors in yeast reporter, dose response, S. cerevisiae, CDRE-lacZ, luminescence, secondary (AID 2388); assay type: functional, cell-based;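 note: yeast reporter cells carrying a calcineurin-responsive lacZ construct stimulated with calcium chloride; luminescent beta-galactosidase reporter signal in whole cells rather than isolated phosphatase activity; potency for inhibition where a drop in reporter signal means calcineurin blockade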
T1 sequence (B9W6M3 whole entry): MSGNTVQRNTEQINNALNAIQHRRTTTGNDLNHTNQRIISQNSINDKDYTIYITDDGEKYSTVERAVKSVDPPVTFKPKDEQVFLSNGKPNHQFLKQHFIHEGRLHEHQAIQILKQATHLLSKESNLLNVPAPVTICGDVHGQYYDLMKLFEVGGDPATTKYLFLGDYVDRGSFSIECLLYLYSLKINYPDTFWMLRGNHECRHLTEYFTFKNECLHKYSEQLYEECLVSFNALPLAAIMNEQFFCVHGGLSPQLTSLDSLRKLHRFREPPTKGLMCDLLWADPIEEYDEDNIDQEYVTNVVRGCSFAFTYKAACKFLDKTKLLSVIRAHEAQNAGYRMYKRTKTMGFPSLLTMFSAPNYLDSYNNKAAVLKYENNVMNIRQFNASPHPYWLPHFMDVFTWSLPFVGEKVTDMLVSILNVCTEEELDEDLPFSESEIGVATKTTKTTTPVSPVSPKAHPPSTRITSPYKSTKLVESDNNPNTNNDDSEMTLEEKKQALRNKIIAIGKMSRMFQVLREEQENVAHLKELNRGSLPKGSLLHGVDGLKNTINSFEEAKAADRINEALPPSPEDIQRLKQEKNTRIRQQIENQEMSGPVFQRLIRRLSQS

[9] = cells; assay type: functional, cell-based; remark: listed apart in the source
[10] = growth suppression of PTEN-null colon cells, dose response, cell-based, HCT116 PTEN knockout (AID 1047); assay type: functional;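 note: HCT116 colon tumor cells with PTEN knocked out; cells exposed to compound for 60 hours before readout; potency for loss of cell viability measured by luminescence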
[11] = NIH-3T3 fibroblast cytotoxicity, dose response, cytotoxicity control for antifungal single agent project, cell-based, Alamar Blue, dry powder (AID 602188); assay type: functional
[12] = test system: BJ; assay: cytotoxicity toward BJ-TERT fibroblasts, dose response, cell-based, RAS-independent, luminescence (AID 1933); assay type: functional; conditions: Homo sapiens
[13] = growth suppression of beta-catenin-knockout colon cells, dose response, cell-based, HCT116, human colon tumor (AID 1045); assay type: functional;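 note: HCT116 colon tumor cells with beta catenin knocked out; cells exposed to compound for 60 hours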
[14] = test system: Streptococcus; assay: Group A Streptococcus viability loss, dose response, counter-screen for streptokinase expression inhibitor project, luminescence, BacTiterGlo (AID 1915); assay type: functional, organism-based;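 note: potency for reduction of bacterial viability or growth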
[15] = biological target: Heat shock protein HSP 90-alpha (Homo sapiens, UniProt P07900); assay type: functional, organism-based
[16] = biological target: T2, Streptokinase A (Streptococcus pyogenes serotype M1, UniProt P10520); assay: S. pyogenes streptokinase expression inhibitors, potency, dose response, plasminogen activation absorbance, OD405 (AID 1914); assay type: functional, Streptococcus pyogenes M1 GAS;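 note: secreted streptokinase activity via plasminogen activation per viability signal from cell pellet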
T2 sequence (P10520 whole entry): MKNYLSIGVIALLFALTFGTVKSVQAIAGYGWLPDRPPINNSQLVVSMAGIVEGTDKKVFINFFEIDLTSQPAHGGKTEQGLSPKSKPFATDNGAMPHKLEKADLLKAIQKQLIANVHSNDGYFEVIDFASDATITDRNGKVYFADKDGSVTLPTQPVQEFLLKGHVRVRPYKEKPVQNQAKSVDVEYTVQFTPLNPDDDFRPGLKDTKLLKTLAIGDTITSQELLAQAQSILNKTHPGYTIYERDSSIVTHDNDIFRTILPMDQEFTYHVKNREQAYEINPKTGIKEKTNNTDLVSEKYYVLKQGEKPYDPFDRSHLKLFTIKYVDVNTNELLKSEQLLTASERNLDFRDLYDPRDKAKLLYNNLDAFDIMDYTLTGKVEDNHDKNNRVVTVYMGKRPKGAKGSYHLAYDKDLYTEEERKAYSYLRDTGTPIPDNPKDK

[17] = test system: BJ; assay: cytotoxicity toward BJ-TERT-LT-ST fibroblasts, dose response, cell-based, RAS-independent, luminescence (AID 1935); assay type: functional; conditions: Homo sapiens;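 note: BJ fibroblasts immortalized with TERT plus LT and ST oncogenes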
[18] = biological target: Nonstructural protein 1 (Influenza A virus, UniProt Q194T2); assay type: functional, Influenza A virus (A/California/07/2009(H1N1))
Sequence of Nonstructural protein 1 (Q194T2 whole entry): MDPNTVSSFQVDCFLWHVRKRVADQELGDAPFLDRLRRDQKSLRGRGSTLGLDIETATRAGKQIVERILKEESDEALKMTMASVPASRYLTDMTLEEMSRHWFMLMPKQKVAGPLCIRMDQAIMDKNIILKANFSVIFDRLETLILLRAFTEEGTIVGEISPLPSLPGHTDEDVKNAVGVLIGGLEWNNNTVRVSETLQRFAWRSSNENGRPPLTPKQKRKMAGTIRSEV

[19] = cytotoxicity toward DRD oncogenic fibroblasts, dose response, cell-based, non-viral oncogenic, luminescence (AID 1934); assay type: functional; conditions: Homo sapiens
[20] = biological target: Luciferin 4-monooxygenase (Photinus pyralis, UniProt P08659); assay: Counter Screen for Luciferase-based Assay Positives. [Related pubchem assays: 620, 618, 411 ]
Sequence of Luciferin 4-monooxygenase (P08659 whole entry): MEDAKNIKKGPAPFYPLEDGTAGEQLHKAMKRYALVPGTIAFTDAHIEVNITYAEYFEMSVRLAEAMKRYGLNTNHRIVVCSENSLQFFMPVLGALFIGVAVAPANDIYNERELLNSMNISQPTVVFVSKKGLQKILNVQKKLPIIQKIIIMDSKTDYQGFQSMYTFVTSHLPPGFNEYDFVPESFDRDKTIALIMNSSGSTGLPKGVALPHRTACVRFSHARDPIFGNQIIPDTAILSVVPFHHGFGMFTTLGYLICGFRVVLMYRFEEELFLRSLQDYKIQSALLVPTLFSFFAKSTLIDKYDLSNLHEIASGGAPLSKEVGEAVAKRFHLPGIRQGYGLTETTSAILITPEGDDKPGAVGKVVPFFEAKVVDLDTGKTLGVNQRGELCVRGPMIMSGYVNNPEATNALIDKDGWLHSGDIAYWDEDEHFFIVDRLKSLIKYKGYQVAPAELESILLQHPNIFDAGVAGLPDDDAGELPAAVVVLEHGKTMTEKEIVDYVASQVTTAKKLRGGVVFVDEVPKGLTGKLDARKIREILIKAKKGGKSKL

[21] = biological target: Adenosylmethionine-8-amino-7-oxononanoate aminotransferase (Mycobacterium tuberculosis, UniProt P9WQ81); assay: Mycobacterium tuberculosis BioA enzyme inhibitor Measured in Biochemical System Using Plate Reader - 2163-02_Inhibitor_Dose_CherryPick_Activity.; assay type: functional, Mycobacterium tuberculosis UT205
Sequence of Adenosylmethionine-8-amino-7-oxononanoate aminotransferase (P9WQ81 whole entry): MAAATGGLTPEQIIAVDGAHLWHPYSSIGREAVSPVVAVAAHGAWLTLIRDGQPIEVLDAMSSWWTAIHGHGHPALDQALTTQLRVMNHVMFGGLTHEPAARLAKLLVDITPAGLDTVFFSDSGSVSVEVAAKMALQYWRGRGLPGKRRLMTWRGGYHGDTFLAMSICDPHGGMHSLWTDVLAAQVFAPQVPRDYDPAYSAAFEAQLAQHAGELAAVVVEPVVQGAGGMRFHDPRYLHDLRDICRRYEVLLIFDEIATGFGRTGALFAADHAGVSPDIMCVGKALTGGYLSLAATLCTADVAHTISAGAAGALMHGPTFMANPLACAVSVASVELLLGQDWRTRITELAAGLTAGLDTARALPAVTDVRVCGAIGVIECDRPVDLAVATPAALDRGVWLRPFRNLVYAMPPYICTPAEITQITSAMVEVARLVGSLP

[22] = biological target: Mitochondrial peptide methionine sulfoxide reductase (Bos taurus, UniProt P54149); assay type: functional;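 note: absorbance read-out, biochemical high-throughput dose-response screen for MsrA inhibitors, confirmatory; recombinant bovine MsrA coupled to E. coli TrxB with NADPH and selenocystamine; potency is for inhibitors of MsrA activity on DMSO substrate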
Sequence of Mitochondrial peptide methionine sulfoxide reductase (P54149 whole entry): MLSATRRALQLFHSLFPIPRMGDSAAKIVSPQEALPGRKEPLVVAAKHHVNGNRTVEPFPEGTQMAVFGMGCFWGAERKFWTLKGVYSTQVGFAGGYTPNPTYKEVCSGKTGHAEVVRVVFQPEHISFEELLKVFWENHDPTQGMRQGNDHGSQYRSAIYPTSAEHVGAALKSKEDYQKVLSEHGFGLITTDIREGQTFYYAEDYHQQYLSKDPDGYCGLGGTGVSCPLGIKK

[23] = HEp-2 cell cytotoxicity, dose response, cytotoxicity control for RSV inhibitor project, HTS (AID 2410); assay type: functional; conditions: human respiratory syncytial virus
[24] = AlphaScreen signal interference compounds, dose response, artefact control for ARNT-TACC3 interaction inhibitor project, biochemical, luminescence, cherry-pick (AID 651705); assay type: functional;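 note: AlphaScreen bead proximity signal that flags compounds interfering with the detection technology; potency reflects signal decrease which marks the compound as an assay artifact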
[25] = biological target: T3, Interleukin-8 (Homo sapiens, UniProt P10145); assay: Dose Response confirmation of uHTS small molecule hits for cystic fibrosis induced NFkb Inhibitors in a PAF-induced IL8 counterscreen.; assay type: functional; conditions: read-out: IC50_Mean
T3 sequence (P10145 whole entry): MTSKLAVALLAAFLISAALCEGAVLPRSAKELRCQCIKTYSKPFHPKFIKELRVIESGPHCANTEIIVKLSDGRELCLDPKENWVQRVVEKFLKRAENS

[26] = biological target: T3, Interleukin-8; assay: Dose Response confirmation of uHTS small molecule hits for cystic fibrosis induced NFkb Inhibitors in a TNFa-induced IL8 counterscreen.; assay type: functional; conditions: read-out: IC50_Mean
[27] = biological target: Tyrosine-protein phosphatase non-receptor type 5 (Homo sapiens, UniProt P54829); assay: STEP phosphatase inhibitors, confirmation, biochemical, fluorescence intensity, uHTS hits (AID 602372); assay type: functional; conditions: read-out: IC50_Mean
Sequence of Tyrosine-protein phosphatase non-receptor type 5 (P54829 whole entry): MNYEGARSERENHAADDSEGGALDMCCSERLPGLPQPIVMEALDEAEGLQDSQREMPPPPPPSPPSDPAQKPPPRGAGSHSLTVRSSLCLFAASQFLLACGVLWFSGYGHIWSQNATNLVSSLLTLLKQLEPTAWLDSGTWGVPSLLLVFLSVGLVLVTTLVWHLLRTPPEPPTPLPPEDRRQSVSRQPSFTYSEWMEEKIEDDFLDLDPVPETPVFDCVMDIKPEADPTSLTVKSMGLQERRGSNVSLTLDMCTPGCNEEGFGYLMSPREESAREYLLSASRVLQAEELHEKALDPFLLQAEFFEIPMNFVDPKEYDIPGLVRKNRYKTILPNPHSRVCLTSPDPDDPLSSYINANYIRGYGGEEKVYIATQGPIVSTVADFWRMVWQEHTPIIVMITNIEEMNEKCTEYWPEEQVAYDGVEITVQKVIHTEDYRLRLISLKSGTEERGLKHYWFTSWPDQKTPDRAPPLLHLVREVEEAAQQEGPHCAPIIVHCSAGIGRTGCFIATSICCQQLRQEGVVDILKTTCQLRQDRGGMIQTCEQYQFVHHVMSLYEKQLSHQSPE

[28] = biological target: Dual specificity protein phosphatase 3 (Homo sapiens, UniProt P51452); assay: VHR phosphatase inhibition, dose response, selectivity assay for STEP inhibitor project, biochemical (AID 602374); assay type: functional; conditions: read-out: IC50_Mean
Sequence of Dual specificity protein phosphatase 3 (P51452 whole entry): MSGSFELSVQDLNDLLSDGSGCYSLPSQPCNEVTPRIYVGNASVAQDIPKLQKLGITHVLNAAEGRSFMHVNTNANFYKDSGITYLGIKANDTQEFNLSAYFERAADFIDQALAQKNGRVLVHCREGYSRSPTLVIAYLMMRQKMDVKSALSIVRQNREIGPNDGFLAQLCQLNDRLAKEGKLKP

[29] = biological target: Tyrosine-protein phosphatase non-receptor type 11 (Homo sapiens, UniProt Q06124); assay: SHP2 phosphatase inhibition, dose response, selectivity assay for STEP inhibitor project, biochemical (AID 602367); assay type: functional; conditions: read-out: IC50_Mean
Sequence of Tyrosine-protein phosphatase non-receptor type 11 (Q06124 whole entry): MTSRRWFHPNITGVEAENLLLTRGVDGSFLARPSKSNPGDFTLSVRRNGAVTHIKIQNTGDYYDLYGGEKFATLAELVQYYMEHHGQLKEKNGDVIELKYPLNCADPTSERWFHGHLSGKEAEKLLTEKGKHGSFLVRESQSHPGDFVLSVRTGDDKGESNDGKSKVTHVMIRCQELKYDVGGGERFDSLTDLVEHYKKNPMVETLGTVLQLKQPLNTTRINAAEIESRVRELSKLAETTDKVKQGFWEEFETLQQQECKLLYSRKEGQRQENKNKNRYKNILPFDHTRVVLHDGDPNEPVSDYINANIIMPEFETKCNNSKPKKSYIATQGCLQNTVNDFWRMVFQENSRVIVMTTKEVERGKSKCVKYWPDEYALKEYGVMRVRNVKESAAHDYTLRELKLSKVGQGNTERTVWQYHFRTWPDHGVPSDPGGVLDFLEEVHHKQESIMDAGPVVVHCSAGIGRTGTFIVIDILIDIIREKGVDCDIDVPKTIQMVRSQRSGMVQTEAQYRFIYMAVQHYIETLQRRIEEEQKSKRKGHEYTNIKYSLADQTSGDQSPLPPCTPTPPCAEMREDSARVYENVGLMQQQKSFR

[30] = MDA-MB-231 cell growth inhibition, dose response, cytotoxicity control for RAD54 inhibitor project, CellTiter-Glo luminescence, cherry-pick (AID 651692); assay type: functional, cell-based
[31] = biological target: T4, DNA repair protein RAD52 homolog (Homo sapiens, UniProt P43351); assay type: functional, biochemical
T4 sequence (P43351 whole entry): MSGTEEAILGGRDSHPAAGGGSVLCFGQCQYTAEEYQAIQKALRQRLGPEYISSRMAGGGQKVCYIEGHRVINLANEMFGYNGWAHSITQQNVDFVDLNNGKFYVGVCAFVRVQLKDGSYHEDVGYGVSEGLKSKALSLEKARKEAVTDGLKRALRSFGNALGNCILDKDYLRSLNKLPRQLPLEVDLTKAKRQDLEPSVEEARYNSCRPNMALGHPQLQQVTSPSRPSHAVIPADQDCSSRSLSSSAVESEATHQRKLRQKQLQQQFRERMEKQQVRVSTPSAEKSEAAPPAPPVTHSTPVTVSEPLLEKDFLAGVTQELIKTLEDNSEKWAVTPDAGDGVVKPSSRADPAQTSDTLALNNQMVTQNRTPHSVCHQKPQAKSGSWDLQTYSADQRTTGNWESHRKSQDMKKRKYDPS

[32] = biological target: T5, DNA repair and recombination protein RAD54-like (Homo sapiens, UniProt Q92698); assay: inhibitors of human RAD54 branch migration, confirmation, biochemical, fluorescence, cherry-picked samples, dose series (AID 651657); assay type: functional
T5 sequence (Q92698 whole entry): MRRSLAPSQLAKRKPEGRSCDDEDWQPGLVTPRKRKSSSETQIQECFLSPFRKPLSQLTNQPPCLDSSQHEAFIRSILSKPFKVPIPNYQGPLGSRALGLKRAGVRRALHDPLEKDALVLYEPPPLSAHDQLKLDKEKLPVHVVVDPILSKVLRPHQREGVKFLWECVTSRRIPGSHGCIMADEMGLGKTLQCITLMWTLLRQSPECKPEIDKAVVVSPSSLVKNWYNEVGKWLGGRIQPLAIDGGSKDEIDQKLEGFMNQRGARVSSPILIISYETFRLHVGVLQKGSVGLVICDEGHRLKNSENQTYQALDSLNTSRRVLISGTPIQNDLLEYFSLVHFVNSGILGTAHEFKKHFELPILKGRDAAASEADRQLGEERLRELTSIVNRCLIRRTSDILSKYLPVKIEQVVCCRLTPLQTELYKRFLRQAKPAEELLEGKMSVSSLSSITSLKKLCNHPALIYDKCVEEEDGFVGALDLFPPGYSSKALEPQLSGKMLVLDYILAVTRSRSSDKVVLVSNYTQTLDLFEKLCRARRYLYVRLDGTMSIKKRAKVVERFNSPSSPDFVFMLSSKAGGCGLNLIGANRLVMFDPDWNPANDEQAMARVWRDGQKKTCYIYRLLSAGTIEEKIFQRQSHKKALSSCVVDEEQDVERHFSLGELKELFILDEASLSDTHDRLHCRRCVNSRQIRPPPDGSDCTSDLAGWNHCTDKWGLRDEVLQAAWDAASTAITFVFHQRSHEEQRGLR

[33] = test system: Vero; assay: cells; assay type: functional; conditions: Chlorocebus sabaeus
[34] = biological target: T6, Protein skinhead-1 (Caenorhabditis elegans, UniProt P34707); assay type: functional
T6 sequence (P34707 whole entry): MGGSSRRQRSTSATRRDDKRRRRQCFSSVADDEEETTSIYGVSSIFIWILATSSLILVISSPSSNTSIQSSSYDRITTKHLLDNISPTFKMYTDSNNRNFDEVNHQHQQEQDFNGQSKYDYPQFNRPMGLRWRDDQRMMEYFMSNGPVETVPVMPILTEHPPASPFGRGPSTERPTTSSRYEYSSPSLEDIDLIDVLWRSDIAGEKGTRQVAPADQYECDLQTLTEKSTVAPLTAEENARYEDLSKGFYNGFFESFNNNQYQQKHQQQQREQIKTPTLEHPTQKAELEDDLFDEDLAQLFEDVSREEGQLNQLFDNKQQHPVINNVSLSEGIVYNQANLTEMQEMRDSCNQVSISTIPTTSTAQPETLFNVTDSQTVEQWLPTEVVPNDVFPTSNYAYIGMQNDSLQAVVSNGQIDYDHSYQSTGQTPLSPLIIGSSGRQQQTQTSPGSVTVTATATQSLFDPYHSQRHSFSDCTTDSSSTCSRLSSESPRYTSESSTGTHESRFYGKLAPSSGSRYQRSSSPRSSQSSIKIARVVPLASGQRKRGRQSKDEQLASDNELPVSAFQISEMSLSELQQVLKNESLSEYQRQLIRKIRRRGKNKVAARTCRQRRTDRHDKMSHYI

[35] = biological target: Beta-2 adrenergic receptor (Homo sapiens, UniProt P07550); assay: beta2AR agonists driving receptor internalization, dose response, cell-based, FAP fluorogen, flow cytometry, cherry pick 1 (AID 588763); assay type: functional
Sequence of Beta-2 adrenergic receptor (P07550 whole entry): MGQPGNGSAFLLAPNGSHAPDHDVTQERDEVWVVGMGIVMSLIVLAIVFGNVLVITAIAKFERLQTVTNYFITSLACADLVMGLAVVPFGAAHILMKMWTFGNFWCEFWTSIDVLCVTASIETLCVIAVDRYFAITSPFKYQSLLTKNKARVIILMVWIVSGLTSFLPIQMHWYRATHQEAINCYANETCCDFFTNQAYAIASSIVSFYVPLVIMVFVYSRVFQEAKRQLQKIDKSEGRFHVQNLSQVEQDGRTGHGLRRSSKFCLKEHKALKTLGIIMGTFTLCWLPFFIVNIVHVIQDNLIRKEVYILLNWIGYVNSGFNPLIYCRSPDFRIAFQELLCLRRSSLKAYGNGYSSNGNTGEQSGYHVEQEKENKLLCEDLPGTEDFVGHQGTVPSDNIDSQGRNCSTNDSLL

What does the source list for `Oc1c(CN2CCc3ccccc3C2)cc(Cl)c2cccnc12`?
EC50 [1]: 2.95 µM (active); EC50 [2]: > 160 µM (inactive); EC50 [3]: > 160 µM (inactive); EC50 [4]: 0.712 µM (active); EC50 [5]: 22.2 µM (active); EC50 [6]: 10.9 µM (active); EC50 [7]: > 350 µM (not active); EC50 [8]: > 180 µM (inactive); EC50 [9]: > 350 µM (not active); EC50 [10]: 1.03 µM (active); AC50 [11]: < 0.1 µM (active); EC50 [12]: 8.6 µM (active); EC50 [13]: 0.973 µM (active); EC50 [14]: 9.33 µM (active); AC50 [15]: 7.67 µM (active); EC50 [16]: > 150 µM (not active); EC50 [17]: 8.45 µM (inconclusive); IC50 [18]: 11.1 µM (active); EC50 [19]: 6.01 µM (active); EC50 [20]: 17.7 µM (active)

Which AC50 [21] does the source give for `C/C=C(/C)C(=O)OC(C)(C)[C@@H]1Cc2c(ccc3ccc(=O)oc23)O1` [COLUMBIANADIN] here?
The AC50 was 0.389 µM (active).

For `C/C(N)=C(/C#N)C(=O)CSc1nn(-c2ccc(Cl)cc2)c(=S)s1`, which IC50 [22] is on record?
The IC50 was 155 µM (inactive).

What about the CC50 [23] of the same compound?
The CC50 was 15.9 µM (active).

With `O=C(CSc1cccc2cccnc12)Nc1cc(C(=O)O)cc(C(=O)O)c1` as the compound, how does the AC50 [24] read?
Its AC50 is 104 µM (active).

Which IC50 [25] does the source give for `C=CC(=O)Nc1cccc(Oc2[nH]cnc3ncc(-c4cnc5ccccc5c4)c2-3)c1` here?
Its IC50 is 2.52 µM (active).

And the IC50 [26]?
Its IC50 is 3.39 µM (active).

What does the source list for `O=C(NN=Cc1ccccc1O)NN=Cc1ccccc1O`?
IC50 [27]: 10.1 µM (active); IC50 [28]: 4.05 µM (active); IC50 [29]: 3.93 µM (active)

What does the source list for `CN(C)CCNc1ncnc2c1sc1nc(N3CCCC3)c3c(c12)CC(C)(C)OC3`?
AC50 [30]: 34.7 µM (active); AC50 [31]: 6.55 µM (active); AC50 [32]: 9.5 µM (active); CC50 [33]: 17.8 µM (active); IC50 [34]: > 100 µM (inactive); EC50 [35]: 4.02 µM (active)

— ChEMBL document CHEMBL1201862, “PubChem BioAssay data set” (2004)
